Earlier results as cited in patent US20090306452A1, “APPARATUS FOR TREATING A CONTAMINATED MEDIA WITH A SORBENT” (priority 2008, published 2009).

Conditions: log10 of concentration in octanol / concentration in water; examples of hydrophobic hazardous materials
For `c1ccc2c(c1)Oc1ccccc1O2` [dibenzo (1,4) dioxin], the “Log P” value is given as “about 4”. In the case of `Clc1cc(Cl)cc(C2(CC(Cl)(Cl)Cl)CO2)c1` (stereo not shown) [2-(3,5-dichlorophenyl)-2-(2,2,2-trichloroethyl) oxirane], the “Log P” value is listed as “about 4”. In the case of `Clc1cc2oc3c(Cl)cc(Cl)c(Cl)c3c2c(Cl)c1Cl` [1,2,3,6,8,9-hexachloro-dibenzofuran], the “Log P” value is given as “about 7”. For hexafluoromethane, the “Log P” value is listed as “about 2”.
